For one test, the system named is MDA-MB-231 cells. The test is described as follows: Microfluidic bi-directional migration (MBDM) assay, mean migration speed and persistence. Format: cell-based, human. The source says: To quantify the effects of iEF treatment on directed cell migration speed and persistence, a custom microfluidic bi-directional microtrack (MBDM) assay was developed that enables real-time monitoring with time-lapse microscopy of cell motility.
In this study, the EF sensing mechanisms of breast cancer cells in response to asymmetric iEFs (<100 μV/cm) was investigated. Using a MBDM assay, changes in the speed and persistence of spontaneously migrating MDA-MB-231 breast cancer cells were observed. This cell type was selected for these studies because it is a putative metastatic breast cancer cell line that is also responsive to gradients of a chemoattractant such as EGF (Wang S J, et al. (2004) Exp Cell Res 300 (1):180-189; Wu A, et al. (2013) Proc Natl Acad Sci U S A 110(40):16103-16108). […] This configuration enables direct comparison of cell movement in response to iEFs applied primarily with the direction of cell migration (“parallel”) or against the direction of cell migration (“anti-parallel”) within the same microfluidic device. Here, the field direction is defined as the direction that has the higher peak magnitude, as well as higher time-average field strength.
To calculate persistence, the following protocol was followed for each cell tracked in a microtrack of the MBDM assay. A cell starts at position Pt at time t. After a single time increment, dt, the cell moves to a new position, Pt+dt. The distance traveled during this time is the absolute difference in the two positions denoted as Li: Li=|Pt+dt−Pt|
The total distance traveled is then the sum of all distances traveled during N time increments denoted as Lt. Additionally, the total time of travel is the number of time increments multiplied by the size of the time increments denoted as Tt.
The displacement is simply the difference between the final and initial position: Ld=|PFinal−PInitial|
The MBDM assay was designed to have three ports separated by 700 μm long arrays of parallel microtracks (FIG. 1D). The dimension of each port was 50 mm×15 mm. Cells were seeded in the center port and the top and bottom ports were designated as cell collection port and/or chemokine source reservoir port depending on the experimental condition. Microchannels were designed to have a square cross-section of 20 μm×20 μm. The cross-section dimensions were on the same order as the size of single cells and mimic the dimensions of pre-existing microtracks available to cells in-vivo (Kraning-Rush C M, et al. (2013) lntegr Biol (Camb). 5 (3):606-616). Moreover, these migratory tracks are representative of physiologically relevant matrix metalloproteinase independent cancer-cell migration mode during metastasis (Friedl P & Alexander S (2011) Cell 147 (5):992-1009; Wolf K, et al. (2009) Semin Cell Dev Biol. 20 (8):931-941; Friedl P & Wolf K (2003) Nat Rev Cancer. 3 (5):362; Wolf K, et al. (2007) Nat Cell Biol. 9 (8):893; Wolf K, et al. (2003) J Cell Biol. 160 (2):267-277). The bi-directional design of this assay allows cells to migrate in either direction from the seeding port and provides a better understanding and quantification of the directional bias of external cues such as chemokine gradients and the directional effects of applied iEFs. The large ports for cell seeding ensure uniform seeding density, excellent cell viability, and repeatability.
Cells were washed in culture plates with 1×PBS solution, treated with 0.05% trypsin-EDTA solution (Sigma-Aldrich), and then counted using a hemocytometer. Cells (2×10^5) suspended in migration media were seeded in the middle port (seeding port) with an extremely small flow from the collection ports to the seeding port, which equilibrated in less than 15 minutes. The cells inside the devices were then incubated for 12 hours in migration media following which the media was aspirated and replaced with new media based on the experimental conditions. […]

Another test concerns EGFR. The test is described as follows: Western blot of EGFR phosphorylation (Tyr-1068). In kind it is cell-based, human. As to conditions: EGF 25 ng/mL, absence of iEFs, 12 hours. As to the method: For these experiments, 1×10^6 cells/well were plated in 6-well plates in growth media for 12 hours followed by migration media for another 12 hours. Fresh migration media was added to the top three wells in each plate (1, 2, 3) while EGF (25 ng/mL) and supplemental migration media were added to the bottom three wells (4, 5, 6). One of the cell-containing 6-well plates was then treated with iEFs for 12 hours. Immediately after treatment, the plates were placed on ice and each well was then washed three times with 1× tris-buffered saline (TBS, Corning Inc.) solution. TBS was aspirated out and 1 mL ice-cold radioimmunoprecipitation assay (RIPA) buffer, supplemented with a protease inhibitor and a phosphatase inhibitor, was added to each well. Cells were scraped out using a cold plastic cell scraper and the cell suspension was transferred into a pre-cooled microcentrifuge tube. The cell suspension was then spun at 16000 g for 20 minutes in a 4° C. precooled centrifuge. The centrifuge tubes were placed on ice and the supernatants were transferred to fresh tubes and kept on ice. The pellet at the bottom of each microcentrifuge tube was discarded. Protein in each tube was estimated against a standard bovine serum albumin (BSA) solution (1.42 mg/mL) using the DCTM Protein Assay Kit II (Bio-Rad, 500-0112). […]
On the technique in general: A western blot detects proteins with antibodies after separation by electrophoresis.

1 substance from patent US12306176B2, “Microfluidic bi-directional migration assay” (Ohio State Innovation Foundation, priority 2017, dated 2025) can be followed below.

In turn, epidermal growth factor [EGF] had a mean migration speed in the test with MDA-MB-231 cells (EGF gradient (25 ng/mL) alone, no iEF, no inhibitor) of 0.43 μm/min. For the same substance, in the test with MDA-MB-231 cells (stable EGF gradient alone), the average persistence is given as 0.84, the “increase of persistence compared to untreated control” value is on record as 6% and the “mean migration speed compared to untreated controls” value was “increased significantly”. In the test with EGFR, the EGFR phosphorylation result is on record as “resulted in EGFR phosphorylation”.
